In brackets after ≈: the same amount, converted by molar mass. Like-named read-outs stand apart in the source and are kept apart here.
Columns and labels:
[1] = Pharmacokinetic study of the compounds in SD rat (intravenous injection); format: in vivo, SD male rats; settings: in vivo
Description: Test drugs: the compound 1, 6, 8 and 9 prepared in the examples
Control drugs: Meropenem (Meropenem for injection), commercially available; Doripenem (Doripenem for Injection).
Internal standard substance: Warfarin, a white powder, purity 99%, batch number: 0072-8501, provided by Shanghai Institute for Drug Control.
Drug formulation: the test drugs were formulated before use by being dissolved in physiological saline to make a final concentration of 5 mg/mL for intravenous injection.
Test animal: SD male rats, weight: 200˜250 g, purchased from SHANGHAI SLAC LABORATORY ANIMAL CO. LTD.
Drug administration: The SD male rats were randomly divided into five groups with 3 in each group, and given the drugs by intravenous injection at a dose of 10 mg/kg. The animals were weighed before administration.
Collection of Samples: Zero time was marked before administration; 0.5 mL of blood was respectively sampled from orbit venous plexus at 5 min, 15 min, 30 min, 45 min, 1 h, 2 h, 4 h, 6 h, 8 h, 24 h after administration into heparinized centrifuge tubes. The samples were centrifuged for 6 minutes at 8000 rpm and the supernatant plasma was separated. The plasma was frozen at −20° C. for LC-MS/MS analysis.
Chromatographic conditions: column: Gemini C6-Phenyl (50 mm×4.6 mm, 5 μm); mobile phase: 0.1% of formic acid-water-acetonitrile (5:35:60, v/v/v); flow rate: 1 mL/min; column temperature: 35-40° C.; injection volume: 5 μL; split ratio: 1/5.
Mass spectrometer conditions: scanning mode: cation multiple reactions monitoring (MRM); ion source: electrospray ionization (ESI); Nebulize gas: 8 L/min; Curtain gas: 8 L/min; Collision gas: 4 L/min; Ionspray voltage: 4500 v; Temperature: 400° C./500° C.
Preparation of the Standard Curve and Quality-Control Sample: a Suitable Amount of the test drug was weighed precisely and then formulated into a stock solution (2.6 mg/mL) with ultrapure water. The stock solution was diluted with methanol to obtain a series of working solutions in a concentration of 25000, 5000, 2500, 500, 250 and 50 ng/mL, respectively. 100 μL of plasma samples were separately added into 20 μL of said working solutions to obtain the calibration solutions in a concentration of 5000, 1000, 500, 100, 50 and 10 ng/mL. By the same method, the quality-controlled sample solutions in a concentration of 4000, 800 and 20 ng/mL can be prepared. A standard curve was obtained by chromatographic analysis of the samples.
Sample preparation: 20 μL of acetonitrile and 200 μL (200 ng/mL) of Warfarin in acetonitrile were added into 100 μL of plasma sample, then spun for 1 minute and centrifuged for 5 minutes at 15000 rpm. 100 μL of the supernatant was taken, where 3 μL aliquot of the supernatant was used for the LC/MS/MS analysis.
Dosing concentration: The accuracy of the drug concentration in dosing solution for intravenous injection was 103.2%, determined by analysis of the formulated drugs using HPLC and comparison with the standards.
Data analysis: The drug concentration in plasma would be considered as zero if under the detection limit (10 ng/mL). The pharmacokinetics parameters were calculated by the non-compartment model using Winnonlin Professional 5.2 pharmacokinetics software.
Pharmacokinetics: The pharmacokinetics parameters and drug concentration-time curve were obtained by measuring the plasma drug concentration at different time points.

[2] = cited from earlier work
[3] = tested on: penicillin-resistant streptococcus pneumoniae (PRSP); experiment: In vitro antibacterial activity, agar dilution method (clinical isolates); format: cell-based; settings: clinically isolated strains, Gram-positive, read-out: MIC90 S. pneumoniae PRSP
Source text: (§1) Bacterial strains for test: All the bacterial strains are clinical isolates and purchased from public organizations. methicillin-sensitive staphylococcus aureus (MS SA), methicillin-resistant staphylococcus aureus (MRSA), methicillin-sensitive staphylococcus epidermidis (MSSE), methicillin-resistant staphylococcus epidermidis (MRSE), streptococcus pyogenes, penicillin-sensitive streptococcus pneumoniae (PSSP), penicillin-resistant streptococcus pneumoniae (PRSP), Escherichia coli, Citrobacter freundii, Enterobacter cloacae, Hemophilus influenza, Klebsiella pneumonia (producing ESBL), Morganella morganii, Proteus mirabilis, Serratia marcescens, and Pseudomonas aeruginosa.
(§2) Drugs to be tested: compounds of the invention prepared in the examples; the chemical names, structural formulae, preparation materials, and preparation methods are provided in the preparation examples of the compounds;
(§3) Meropenem (Meropenem for injection), Ertapenem (Ertapenem for injection), and Doripenem (Doripenem for injection) commercially available
(§4) Experimental method: the agar dilution method, by reference to Methodology of Pharmacological Experiment (XU Shuyun et al, published by the Peoples Medical Publishing House, 1st Edition, August, 1982; 3rd Edition, 5th printing, January 2002, p 1659-1660).

Serratia marcescens = experiment: as above; format: cell-based; settings: clinically isolated strains, Gram-negative, agar dilution, read-out: MIC90 Serratia marcescens
Source text: as §1, §2, §3, §4

Citrobacter freundii = experiment: as above; format: cell-based; settings: clinically isolated strains, Gram-negative
Source text: as §1, §2, §3, §4

[4] = tested on: methicillin-sensitive staphylococcus epidermidis (MSSE); experiment: as above; format: cell-based; settings: clinically isolated strains, Gram-positive, agar dilution, read-out: MIC90 S. epidermidis MSSE
Source text: as §1, §2, §3, §4

Pseudomonas aeruginosa = experiment: as above; format: cell-based; settings: clinically isolated strains, Gram-negative
Source text: as §1, §2, §3, §4

Proteus mirabilis = experiment: as above; format: cell-based; settings: clinically isolated strains, Gram-negative, agar dilution, read-out: MIC90 Proteus mirabilis
Source text: as §1, §2, §3, §4

Escherichia coli = experiment: as above; format: cell-based; settings: clinically isolated strains, Gram-negative, read-out: MIC90 E. coli
Source text: as §1, §2, §3, §4

[5] = tested on: penicillin-sensitive streptococcus pneumoniae (PSSP); experiment: as above; format: cell-based; settings: clinically isolated strains, Gram-positive, read-out: MIC90 S. pneumoniae PSSP
Source text: as §1, §2, §3, §4

[6] = tested on: methicillin-resistant staphylococcus aureus (MRSA); experiment: as above; format: cell-based; settings: clinically isolated strains, Gram-positive, read-out: MIC90 S. aureus MRSA
Source text: as §1, §2, §3, §4

Morganella morganii = experiment: as above; format: cell-based; settings: clinically isolated strains, Gram-negative
Source text: as §1, §2, §3, §4

streptococcus pyogenes = experiment: as above; format: cell-based; settings: clinically isolated strains, Gram-positive, read-out: MIC90 S. pyogenes
Source text: as §1, §2, §3, §4

Enterobacter cloacae = experiment: as above; format: cell-based; settings: clinically isolated strains, Gram-negative, agar dilution, read-out: MIC90 Enterobacter cloacae
Source text: as §1, §2, §3, §4

[7] = tested on: methicillin-resistant staphylococcus epidermidis (MRSE); experiment: as above; format: cell-based; settings: clinically isolated strains, Gram-positive, read-out: MIC90 S. epidermidis MRSE
Source text: as §1, §2, §3, §4

[8] = tested on: methicillin-sensitive staphylococcus aureus (MSSA); experiment: as above; format: cell-based; settings: clinically isolated strains, Gram-positive, agar dilution, read-out: MIC90 S. aureus MSSA
Source text: as §1, §2, §3, §4

Hemophilus influenza = experiment: as above; format: cell-based; settings: read-out: MIC90 Hemophilus influenza
Source text: as §1, §2, §3, §4

[9] = tested on: Klebsiella pneumonia (producing ESBL); experiment: as above; format: cell-based; settings: Klebsiella pneumoniae; clinically isolated strains (producing ESBL), Gram-negative, agar dilution; read-out: MIC90 Klebsiella pneumonia
Source text: as §1, §2, §3, §4

[10] = SD male rats, intravenous injection 10 mg/kg, plasma, X ± SD, n = 3, read-out: t1/2 (half lives) (converted)

**Q.** For `C[C@@H](O)[C@H]1C(=O)N2C(C(=O)O)=C(SC3CN(S(=O)(=O)NCC(O)CN)C3)[C@H](C)[C@H]12` (stereo partly drawn) [Compound 9, (4R,5S,6S)-3-[1-(2-hydroxy-3-aminopropylaminosulfonyl)-azetidin-3-yl]thio-6-[(1R)-1-hydroxyethyl]-4-methyl-7-oxo-1-aza-bicyclo-[3.2.0]-hept-2-ene-2-carboxylic acid], which half-life [1, 10] is on record?
**A.** The half-life was 19.2 ± 3.6 min.

**Q.** Which results are given for `C[C@@H](O)[C@H]1C(=O)N2C(C(=O)O)=C(S[C@@H]3CN[C@H](CNS(N)(=O)=O)C3)[C@H](C)[C@H]12` [doripenem, Doripenem, reference compound]?
**A.** half-lives in human body [2]: about 1 h; MIC90 [3]: 1 µg/mL (≈ 2.38 µM); MIC90 (Serratia marcescens): 0.25 µg/mL (≈ 0.595 µM); MIC90 (Citrobacter freundii): 0.063 µg/mL (≈ 0.15 µM); MIC90 [4]: 0.125 µg/mL (≈ 0.297 µM); MIC90 (Pseudomonas aeruginosa): 8 µg/mL (≈ 19 µM); MIC90 (Proteus mirabilis): 0.5 µg/mL (≈ 1.19 µM); MIC90 (Escherichia coli): 0.063 µg/mL (≈ 0.15 µM); MIC90 [5]: 0.016 µg/mL (≈ 0.038 µM); MIC90 [6]: 16 µg/mL (≈ 38 µM); MIC90 (Morganella morganii): 0.063 µg/mL (≈ 0.15 µM); MIC90 (streptococcus pyogenes): 0.008 µg/mL (≈ 0.019 µM); MIC90 (Enterobacter cloacae): 0.025 µg/mL (≈ 0.0595 µM); MIC90 [7]: 16 µg/mL (≈ 38 µM); MIC90 [8]: 0.125 µg/mL (≈ 0.297 µM); MIC90 (Hemophilus influenza): 0.5 µg/mL (≈ 1.19 µM); MIC90 [9]: 0.125 µg/mL (≈ 0.297 µM); half-life ([1]; male, SD, iv, 10 mg/kg): 6.6 ± 0.6 min

**Q.** With `C[C@@H](O)[C@H]1C(=O)N2C(C(=O)O)=C(SC3CN(S(N)(=O)=O)C3)[C@H](C)[C@H]12` [Compound 1, (4R,5S,6S)-3-[N-aminosulfonyl-azetidin-3-yl]thio-6-[(1R)-1-hydroxyethyl]-4-methyl-7-oxo-1-aza-bicyclo-[3.2.0]hept-2-ene-2-carboxylic acid] as the compound, how does the MIC90 [3] read?
**A.** Its MIC90 is 0.5 µg/mL (≈ 1.32 µM).

**Q.** And the MIC90 (Serratia marcescens)?
**A.** The MIC90 was 0.063 µg/mL (≈ 0.167 µM).

**Q.** And the MIC90 (Citrobacter freundii)?
**A.** The MIC90 was 0.016 µg/mL (≈ 0.0424 µM).

**Q.** What about the MIC90 [4] of the same compound?
**A.** Its MIC90 is 0.063 µg/mL (≈ 0.167 µM).

**Q.** What about the MIC90 (Pseudomonas aeruginosa) of the same compound?
**A.** Its MIC90 is 4 µg/mL (≈ 10.6 µM).

**Q.** And the MIC90 (Proteus mirabilis)?
**A.** The MIC90 was 0.63 µg/mL (≈ 1.67 µM).

**Q.** And the MIC90 (Escherichia coli)?
**A.** The MIC90 was 0.008 µg/mL (≈ 0.0212 µM).

**Q.** And the MIC90 [5]?
**A.** Its MIC90 is 0.008 µg/mL (≈ 0.0212 µM).

**Q.** And the MIC90 [6]?
**A.** The MIC90 was 4 µg/mL (≈ 10.6 µM).

**Q.** What about the MIC90 (Morganella morganii) of the same compound?
**A.** The MIC90 was 0.032 µg/mL (≈ 0.0848 µM).

**Q.** What about the MIC90 (streptococcus pyogenes) of the same compound?
**A.** Its MIC90 is 0.004 µg/mL (≈ 0.0106 µM).

**Q.** What about the MIC90 (Enterobacter cloacae) of the same compound?
**A.** Its MIC90 is 0.063 µg/mL (≈ 0.167 µM).

**Q.** What about the MIC90 [7] of the same compound?
**A.** Its MIC90 is 4 µg/mL (≈ 10.6 µM).

**Q.** What about the MIC90 [8] of the same compound?
**A.** Its MIC90 is 0.032 µg/mL (≈ 0.0848 µM).

**Q.** What about the MIC90 (Hemophilus influenza) of the same compound?
**A.** The MIC90 was 0.063 µg/mL (≈ 0.167 µM).

**Q.** And the MIC90 [9]?
**A.** The MIC90 was 0.032 µg/mL (≈ 0.0848 µM).

**Q.** And the half-life [1, 10]?
**A.** Its half-life is 19.2 ± 1.2 min.
